Data as given in DBAASP.
≈ marks a conversion by molar mass, not a printed value.

How the values were obtained:
Experiment in all cases: ≥ marks a high value that may be exact or a test limit, other limits are often not marked, values filed in µg/mL are converted to µM
[1] = system: Enterococcus faecalis CIP 76.117
[2] = system: Candida albicans ATCC 90028
[3] = system: Acinetobacter baumannii ATCC 19606
[4] = system: Klebsiella pneumoniae ATCC 700603
[5] = system: Pseudomonas aeruginosa ATCC 27853
[6] = system: Escherichia coli ATCC 25922
[7] = system: Cryptococcus neoformans ATCC 208821
[8] = system: Staphylococcus aureus ATCC 43300
[9] = system: Enterococcus faecium mic80
[10] = system: Staphylococcus aureus ATCC 25923
[11] = system: Pseudomonas aeruginosa LES400
[12] = system: Staphylococcus aureus C623
[13] = system: Pseudomonas aeruginosa 213
Candida albicans C627 = system: Candida albicans C627
[14] = system: Pseudomonas aeruginosa H103
[15] = system: Escherichia coli ESBL 63103
[16] = system: Salmonella enterica subsp. enterica serovar Typhimurium ATCC 14028
[17] = system: Klebsiella aerogenes ATCC 13048
[18] = system: Staphylococcus aureus ATCC 29213
[19] = system: Bacillus cereus ATCC 11778
[20] = system: Pseudomonas aeruginosa 910
[21] = system: Pseudomonas aeruginosa PAO1
[22] = system: Pseudomonas aeruginosa 253
[23] = system: Pseudomonas aeruginosa 919
Bacillus subtilis = system: Bacillus subtilis
Saccharomyces cerevisiae = system: Saccharomyces cerevisiae
Cryptococcus neoformans = system: Cryptococcus neoformans
Salmonella typhimurium = system: Salmonella typhimurium
Pseudomonas putida = system: Pseudomonas putida
Candida albicans = system: Candida albicans
Streptococcus mutans = system: Streptococcus mutans
Staphylococcus aureus = system: Staphylococcus aureus
Streptococcus pneumoniae = system: Streptococcus pneumoniae
Escherichia coli = system: Escherichia coli
Serratia marcescens = system: Serratia marcescens
Escherichia coli BW25113 = system: Escherichia coli BW25113

CC[C@H](C)[C@H](NC(=O)[C@H](CCC(N)=O)NC(=O)[C@@H]1CCCN1C(=O)[C@H](CC(=O)O)NC(=O)[C@H](Cc1ccccc1)NC(=O)[C@@H](NC(=O)[C@H](Cc1cnc[nH]1)NC(=O)[C@H](Cc1cnc[nH]1)NC(=O)[C@H](Cc1ccccc1)NC(=O)[C@@H](N)Cc1ccccc1)[C@@H](C)CC)C(=O)N[C@@H](CCCCN)C(=O)N[C@@H](CO)C(=O)NCC(=O)N[C@@H](CC(C)C)C(=O)N[C@@H](CC(C)C)C(=O)N[C@H](C(=O)N[C@@H](CO)C(=O)N[C@@H](CCSC)C(=O)N[C@@H](Cc1ccc(O)cc1)C(=O)N[C@@H](CC(=O)O)C(=O)O)C(C)C [FFHHIFDPQIKSGLLVSMYD]
MIC [1]: ≥ 122 µM

NCC(=O)N[C@@H](CCCN=C(N)N)C(=O)N[C@@H](CCCN=C(N)N)C(=O)NCC(=O)NCC(=O)N[C@@H](CCCN=C(N)N)C(=O)NCC(=O)NCC(=O)N[C@@H](CCCN=C(N)N)C(=O)NCC(=O)N[C@@H](CCCN=C(N)N)C(=O)NCC(=O)N[C@@H](CCCN=C(N)N)C(=O)O [GRRGGRGGRGRGR]
MIC [2]: 23.6 µM (≈ 32 µg/mL)
MIC [3]: > 23.6 µM
MIC [4]: > 23.6 µM
MIC [5]: > 23.6 µM
MIC [6]: > 23.6 µM
MIC [7]: 23.6 µM (≈ 32 µg/mL)
MIC [8]: > 23.6 µM

CC[C@H](C)[C@H](N)C(=O)N[C@@H](CCCCN)C(=O)N[C@@H](CCCCN)C(=O)N[C@@H](CCCN=C(N)N)C(=O)N[C@@H](Cc1c[nH]c2ccccc12)C(=O)N[C@@H](Cc1c[nH]c2ccccc12)C(=O)N[C@@H](Cc1c[nH]c2ccccc12)C(=O)N[C@@H](Cc1ccccc1)C(=O)N[C@@H](CCCN=C(N)N)C(=O)O [IKKRWWWFR]
MIC [9]: ≥ 45.5 µM
MIC [10]: 22.8 µM (≈ 32 µg/mL)
MIC [11]: ≥ 91.1 µM
MIC [12]: 22.8 µM (≈ 32 µg/mL)
MIC [13]: ≥ 91.1 µM
MIC (Candida albicans C627): ≥ 91.1 µM
MIC [14]: ≥ 91.1 µM
MIC [15]: ≥ 45.5 µM

CC[C@H](C)[C@H](N)C(=O)N[C@@H](CC(C)C)C(=O)NCC(=O)N[C@@H](C)C(=O)N[C@@H](C)C(=O)N[C@@H](Cc1c[nH]c2ccccc12)C(=O)N[C@@H](CC(N)=O)C(=O)NCC(=O)N[C@@H](C)C(=O)N[C@@H](CCCCN)C(=O)N[C@@H](CO)C(=O)N[C@@H](CC(C)C)C(=O)N[C@@H](Cc1ccccc1)C(N)=O [ILGAAWNGAKSLF]
MIC [16]: > 74.2 µM
MIC [17]: ≥ 74.2 µM
MIC [6]: > 74.2 µM
MIC [18]: > 74.2 µM
MIC [19]: ≥ 74.2 µM

CC[C@H](C)[C@H](N)C(=O)N[C@@H](CC(C)C)C(=O)N[C@@H](CCCCN)C(=O)N[C@@H](Cc1c[nH]c2ccccc12)C(=O)N[C@@H](CCCCN)C(=O)N[C@H](C(=O)N[C@@H](Cc1ccccc1)C(=O)N[C@@H](CCCCN)C(=O)N[C@@H](Cc1c[nH]c2ccccc12)C(=O)N[C@@H](CCCCN)C(=O)N[C@@H](Cc1c[nH]c2ccccc12)C(=O)N[C@@H](Cc1ccccc1)C(=O)N[C@@H](CCCN=C(N)N)C(N)=O)[C@@H](C)CC [ILKWKIFKWKWFR]
MIC [20]: 4 µM (≈ 7.51 µg/mL)
MIC [21]: 2 µM (≈ 3.76 µg/mL)
MIC [22]: 11.3 µM (≈ 21.3 µg/mL)
MIC [23]: ≥ 32 µM

CC(C)C[C@H](NC(=O)[C@H](CC(C)C)NC(=O)[C@H](CCCN=C(N)N)NC(=O)[C@H](Cc1cnc[nH]1)NC(=O)[C@@H](NC(=O)[C@H](CCCN=C(N)N)NC(=O)CNC(=O)[C@@H](NC(=O)[C@@H]1CCCN1)C(C)C)C(C)C)C(=O)N[C@@H](CCCN=C(N)N)C(=O)N[C@@H](CCCCN)C(=O)O [PVGRVHRLLRK]
MIC (Bacillus subtilis): 24 µM (≈ 32 µg/mL)
MIC (Saccharomyces cerevisiae): ≥ 96.2 µM
MIC (Cryptococcus neoformans): ≥ 96.2 µM
MIC (Salmonella typhimurium): 24 µM (≈ 32 µg/mL)
MIC (Pseudomonas putida): ≥ 48.1 µM
MIC (Candida albicans): 48.1 µM (≈ 64 µg/mL)
MIC (Streptococcus mutans): 24 µM (≈ 32 µg/mL)
MIC (Staphylococcus aureus): 48.1 µM (≈ 64 µg/mL)
MIC (Streptococcus pneumoniae): ≥ 48.1 µM
MIC (Escherichia coli): 24 µM (≈ 32 µg/mL)
MIC (Serratia marcescens): ≥ 48.1 µM

CC[C@H](C)[C@H](NC(=O)[C@@H]1CCCN1C(=O)[C@H](Cc1c[nH]c2ccccc12)NC(=O)[C@H](CCCN=C(N)N)NC(=O)[C@H](Cc1ccccc1)NC(=O)[C@@H](N)CCCN=C(N)N)C(=O)N[C@@H](CCCN=C(N)N)C(=O)N[C@@H](CCCN=C(N)N)C(=O)N[C@@H](CCCN=C(N)N)C(=O)N1CCC[C@H]1C(=O)N[C@H](C(=O)N[C@@H](CCCN=C(N)N)C(=O)N1CCC[C@H]1C(=O)N1CCC[C@H]1C(=O)N[C@@H](Cc1c[nH]c2ccccc12)C(=O)N[C@@H](Cc1ccc(O)cc1)C(=O)N[C@@H](CCCN=C(N)N)C(=O)O)[C@@H](C)CC [RFRWPIRRRPIRPPWYR]
MIC (Escherichia coli BW25113): 4 µM (≈ 9.64 µg/mL)

CC(C)C[C@H](NC(=O)[C@H](Cc1c[nH]c2ccccc12)NC(=O)[C@H](CCCN=C(N)N)NC(=O)[C@H](Cc1c[nH]c2ccccc12)NC(=O)[C@H](Cc1c[nH]c2ccccc12)NC(=O)[C@H](CCCCN)NC(=O)[C@H](CCCCN)NC(=O)[C@H](Cc1c[nH]c2ccccc12)NC(=O)[C@@H](N)CCCN=C(N)N)C(=O)O [RWKKWWRWL]
MIC [9]: 11.1 µM (≈ 16 µg/mL)
MIC [10]: 2.77 µM (≈ 4 µg/mL)
MIC [11]: 11.1 µM (≈ 16 µg/mL)
MIC [12]: 2.77 µM (≈ 4 µg/mL)
MIC [13]: 11.1 µM (≈ 16 µg/mL)
MIC (Candida albicans C627): 2.77 µM (≈ 4 µg/mL)
MIC [14]: 1.38 µM (≈ 2 µg/mL)
MIC [15]: 11.1 µM (≈ 16 µg/mL)

CC[C@H](C)[C@H](NC(=O)[C@@H]1CCCN1C(=O)[C@@H]1CCCN1C(=O)[C@H](CCCN=C(N)N)NC(=O)[C@H](Cc1c[nH]c2ccccc12)NC(=O)[C@@H](N)CCCN=C(N)N)C(=O)N[C@@H](CCCN=C(N)N)C(=O)N[C@@H](CCCN=C(N)N)C(=O)N1CCC[C@H]1C(=O)N1CCC[C@H]1C(=O)N[C@H](C(=O)N[C@@H](CCCN=C(N)N)C(=O)N1CCC[C@H]1C(=O)N1CCC[C@H]1C(=O)N[C@@H](Cc1ccccc1)C(=O)N[C@@H](Cc1ccc(O)cc1)C(=O)N1CCC[C@H]1C(=O)O)[C@@H](C)CC [RWRPPIRRPPIRPPFYP]
MIC (Escherichia coli BW25113): 16 µM (≈ 35.2 µg/mL)

NC(=O)CC[C@H](NC(=O)[C@H](Cc1cnc[nH]1)NC(=O)[C@H](CO)NC(=O)[C@H](CCCN=C(N)N)NC(=O)[C@H](Cc1ccccc1)NC(=O)[C@H](Cc1cnc[nH]1)NC(=O)[C@H](CCCN=C(N)N)NC(=O)[C@H](Cc1cnc[nH]1)NC(=O)[C@H](Cc1cnc[nH]1)NC(=O)[C@@H](N)CO)C(=O)N[C@@H](CS)C(=O)N[C@@H](CCCN=C(N)N)C(=O)O [SHHRHFRSHQCR]
MIC [2]: 20.2 µM (≈ 32 µg/mL)
MIC [3]: > 20.2 µM
MIC [4]: > 20.2 µM
MIC [5]: > 20.2 µM
MIC [6]: > 20.2 µM
MIC [7]: 20.2 µM (≈ 32 µg/mL)
MIC [8]: > 20.2 µM
